The values that follow come from patent publication US20240294551A1 (AMGEN INC., priority 2022, published 2024).

Like-named read-outs stand apart in the source and are kept apart here.

In one experiment the test system is MIA PaCa-2 cells. Briefly: MIA PaCa-2 CTG Assay (CellTiter-Glo cell viability). Format: cell-based, human. The note with it: Homo sapiens, second value of the cell. How it is done: MIA PaCa-2 CTG Assay Protocol
MIA PaCa-2 (human pancreatic carcinoma; ATCC CRL-1420) cells were cultured in RPMI 1640 medium containing 10% fetal bovine serum and 1× penicillin/streptomycin/L-glutamine. Cells were seeded in 384-well plates at a density of 1.67E+04 cells/mL and incubated at 37° C., 5% CO2, overnight. Serially-diluted compound or DMSO was added to the cells, and plates were incubated at 37° C., 5% CO2 for 72 h. Cell viability was measured using a CellTiter-Glo® Luminescent Cell Viability Assay kit (Promega) according to the manufacturer's protocol. The luminescence signal of treated samples was normalized to DMSO control, and data were analyzed using a 4-parameter logistic model to calculate IC50 values.

Experiment [1] relates to Phosphorylation of ERK1/2 in AsPC-1 cells. Briefly: Phospho-ERK1/2 MSD Assay. Format: cell-based, human. Put shortly:
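Read-out: MSD electrochemiluminescent detection of phosphorylated ERK1/2 in whole-cell lysates, fitted to a 4-parameter logistic curve for IC50. Prior to lysis, AsPC-1 cells (25,000 per well) received a 2 h compound dose-response at 37 °C.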

A further experiment relates to AsPC-1 cells. Briefly: AsPC-1 CTG Assay (CellTiter-Glo cell viability). Format: cell-based, human. Particulars: first value of the cell, read-out: G12D/C/V Cell Proliferation CTG (72 h) AsPC-1. Put shortly: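 Human pancreatic AsPC-1 or colon SW620 cells in RPMI 1640 with 10% FBS, seeded overnight, then exposed to serially diluted compound for 72 h at 37 °C. CellTiter-Glo luminescence normalized to DMSO control; IC50 from a 4-parameter logistic model.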

Experiment [2] concerns the target His-tagged KRAS G12D protein (Homo sapiens (Human), UniProt P01116, G12D). Briefly: KRAS G12D TR-FRET Assay. Format: binding. Put shortly: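 His-tagged KRAS G12D (diluted to 20 nM in pH 7.4 HEPES buffer with 10 mM MgCl2 and 10 μM GDP) was preincubated with titrated compound for 30 min at room temperature. Biotinylated KRPep-2d peptide (diluted to 20 nM) was then added for 1 h, and displacement was monitored by TR-FRET.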

For experiment [3], the target named is GDP-bound KRAS protein (aa 1-169), containing both G12D and C118A amino acid substitutions (Homo sapiens (Human), UniProt P01116, C118A/G12D). Briefly: KRAS G12D Coupled Nucleotide Exchange Assay. It is filed as biochemical.
Where [4] appears, read: Mia PaCa-2, 72 h, read-out: G12D/C/V Cell Proliferation CTG (72 h) Mia PaCa-2.
[5] abbreviates: Homo sapiens, ASPC1, 2 h, read-out: 2 h p-ERK (AsPC-1 cells), IC50.
[6] abbreviates: Homo sapiens, ASPC1, 72 h, AsPC-1, 72 h.
[7] abbreviates: read-out: KRAS G12D Binding IC50.
Where [8] appears, read: read-out: KRAS G12D Coupled Exchange IC50.
Setting [9] is: Homo sapiens, ASPC1, 2 h, read-out: 2 h p-ERK (AsPC-1 cells).
The mark [10] stands for this setting: TR-FRET, read-out: KRAS G12D Binding.
The mark [11] stands for this setting: 2 hours compound pre-incubation, read-out: KRAS G12D Coupled Exchange.
The mark [12] stands for this setting: Homo sapiens, ASPC1, 72 h, AsPC-1 cells (G12D), 72 h.

`Fc1c2ncc3c(nc(OC[C@@]45CCCN4C[C@H](F)C5)nc13)N1CCC[C@@H](CSCCCCc3c(Cl)cc4[nH]ncc4c3-2)C1` [Example 143]: the values for the IC50 (in the experiment with MIA PaCa-2 cells (setting [4]); in experiment [1] (setting [5]); with AsPC-1 cells (setting [6])) were 480 nM, 109 nM and 980 nM, respectively.
Consider `Cc1cc2[nH]ncc2c2c1CCCOC(=O)O[C@@H]1COCCN(C1)c1nc(OC[C@@]34CCCN3C[C@H](F)C4)nc3c(F)c-2ccc13` [Example 192, (26S)-32-fluoro-4-(((2R,7aS)-2-fluorotetrahydro-1H-pyrrolo[1,2-a]pyrrol-7a(5H)-yl)methoxy)-18-methyl-23,25,28-trioxa-1,3,5,14,15-pentaazahexacyclo[24.4.1.1~6,10~.0~2,7~.0~11,19~.0~12,16~]dotriaconta-2,4,6,8,10(32),11,13,16,18-nonaen-24-one], for which the values for the IC50 (in the experiment with MIA PaCa-2 cells (setting [4]); in experiment [1] (setting [5]); in the experiment with AsPC-1 cells (setting [6])) were 67 nM, 21.8 nM and 375 nM, respectively.
Consider `C[C@@]12COCCN(C1)c1nc(OC[C@@]34CCCN3C[C@H](F)C4)nc3c(F)c(ncc13)-c1cccc(Cl)c1CCCOC(=O)O2` [Example 200, (23S)-15-chloro-29-fluoro-4-(((2R,7aS)-2-fluorotetrahydro-1H-pyrrolo[1,2-a]pyrrol-7a(5H)-yl)methoxy)-23-methyl-20,22,25-trioxa-1,3,5,9-tetraazapentacyclo[21.4.1.1~6,10~.0~2,7~.0~11,16~]nonacosa-2,4,6,8,10(29),11,13,15-octaen-21-one], for which the IC50 worked out at 320 nM in the experiment with MIA PaCa-2 cells (setting [4]), 10 nM in experiment [2] (setting [7]), 262 nM in experiment [1] (setting [5]) and 4 nM in experiment [3] (setting [8]).
As to `C[C@@]12COCCN(C1)c1nc(OC[C@@]34CCCN3C[C@H](F)C4)nc3c(F)c(ncc13)-c1cccc3ccc(F)c(c13)CCOC(=O)O2` [Example 304, (16S)-23,32-difluoro-8-(((2R,7aS)-2-fluorotetrahydro-1H-pyrrolo[1,2-a]pyrrol-7a(5H)-yl)methoxy)-16-methyl-14,17,19-trioxa-3,7,9,11-tetraazahexacyclo[20.7.1.1~2,6~.1~11,16~.0~5,10~.0~26,30~]dotriaconta-1(30),2(32),3,5,7,9,22,24,26,28-decaen-18-one], the IC50 with MIA PaCa-2 cells (setting [4]) came to 380 nM; in experiment [2] (setting [7]), 15 nM; in experiment [1] (setting [5]), 103 nM; in experiment [3] (setting [8]) it was 4 nM.
As for `Fc1c2ncc3c(nc(OC[C@@]45CCCN4C[C@H](F)C5)nc13)N1CCOC[C@H](C1)c1noc(n1)CCCc1c(Cl)cc3[nH]ncc3c1-2` [Example 381], the IC50 with MIA PaCa-2 cells (MIA PaCa-2 cells (G12C), 72 h, read-out: G12D/C/V Cell Proliferation CTG (72 h) MIA PaCa-2) worked out at 12 nM; in experiment [1] (setting [9]), 10.4 nM.
On to `Fc1c2ncc3c(nc(OC[C@@]45CCCN4C[C@H](F)C5)nc13)N1CCO[C@@H](COCC[C@@H]3C[C@@H]3c3c(Cl)cc4[nH]ncc4c3-2)C1` [Example 392, (11S,13S,18R)-9-chloro-31-fluoro-25-(((2R,7aS)-2-fluorotetrahydro-1H-pyrrolo[1,2-a]pyrrol-7a(5H)-yl)methoxy)-16,19-dioxa-5,6,22,24,26,30-hexaazaheptacyclo[25.3.1.1~18,22~.0~2,10~.0~3,7~.0~11,13~.0~23,28~]dotriaconta-1(31),2,4,7,9,23,25,27,29-nonaene], for which the IC50 in experiment [2] (setting [10]) was 6 nM; in experiment [1] (setting [9]), 31.5 nM; in experiment [3] (setting [11]), 4 nM; with AsPC-1 cells (setting [12]), 291 nM.
Consider `O[C@]12C[C@@]3(CCCN(C3)c3nc(OC[C@@]45CCCN4C[C@H](F)C5)nc4c(F)c(ncc34)-c3c(c(Cl)cc4[nH]ncc34)CCc3cnc1o3)C2` [Example 396, (1S,3R)-11-chloro-33-fluoro-25-(((2R,7aS)-2-fluorotetrahydro-1H-pyrrolo[1,2-a]pyrrol-7a(5H)-yl)methoxy)-34-oxa-5,14,15,20,24,26,28-heptaazaoctacyclo[26.3.1.1~1,3~.1~4,7~.1~19,23~.0~10,18~.0~13,17~.0~22,27~]pentatriaconta-4,6,10,12,15,17,19(33),20,22,24,26-undecaen-3-ol], for which the IC50 in experiment [2] (setting [10]) worked out at 7 nM; in experiment [1] (setting [9]), 1.2 nM; in experiment [3] (setting [11]), 3 nM; in the experiment on AsPC-1 cells (setting [12]), 2 nM.
On the same counts, the results for `O=C1CCCCc2c(Cl)cc3[nH]ncc3c2-c2ncc3c(nc(OC[C@@]45CCCN4C[C@H](F)C5)nc3c2F)N2CC[C@@H]3[C@H](C2)N1CC3(F)F` [Example 403, (28R,32R)-18-chloro-27,27,33-trifluoro-4-(((2R,7aS)-2-fluorotetrahydro-1H-pyrrolo[1,2-a]pyrrol-7a(5H)-yl)methoxy)-1,3,5,9,14,15,25-heptaazaheptacyclo[23.5.2.1~6,10~.0~2,7~.0~11,19~.0~12,16~.0~28,32~]tritriaconta-2,4,6,8,10(33),11,13,16,18-nonaen-24-one] are 3 nM, 180 nM, 2 nM and 639 nM.
The matching figures for `CN(C)CC1(COc2nc3c4cnc(c(F)c4n2)-c2c(c(Cl)cc4[nH]ncc24)CCCCO[C@H]2C[C@]4(CCCN3C4)C2)CC1` [Example 405, 1-(1-((((1S,3R)-10-chloro-32-fluoro-4-oxa-13,14,19,23,25,27-hexaazaheptacyclo[25.3.1.1~1,3~.1~18,22~.0~9,17~.0~12,16~.0~21,26~]tritriaconta-9,11,14,16,18(32),19,21,23,25-nonaen-24-yl)oxy)methyl)cyclopropyl)-N,N-dimethylmethanamine]: 5 nM, 41.2 nM, 4 nM and 174 nM.
The matching figures for `O[C@@H]1C[C@@H]2COCCCCc3c(Cl)cc4[nH]ncc4c3-c3ncc4c(nc(OC[C@@]56CCCN5C[C@H](F)C6)nc4c3F)N(C1)C2` [Example 406, (17S,19R)-9-Chloro-30-fluoro-24-(((2R,7aS)-2-fluorotetrahydro-1H-pyrrolo[1,2-a]pyrrol-7a(5H)-yl)methoxy)-15-oxa-5,6,21,23,25,29-hexaazahexacyclo[24.3.1.1˜17,21˜.0˜2,10˜.0˜3,7˜.0˜22,27˜]hentriaconta-1(30),2,4,7,9,22,24,26,28-nonaen-19-ol]: 21 nM, 261 nM, 4 nM and 1940 nM.
Turning to `O[C@H]1C[C@H]2COCCCCc3c(Cl)cc4[nH]ncc4c3-c3ncc4c(nc(OC[C@@]56CCCN5C[C@H](F)C6)nc4c3F)N(C1)C2` [Example 407, (17R,19S)-9-chloro-30-fluoro-24-(((2R,7aS)-2-fluorotetrahydro-1H-pyrrolo[1,2-a]pyrrol-7a(5H)-yl)methoxy)-15-oxa-5,6,21,23,25,29-hexaazahexacyclo[24.3.1.1˜17,21˜.0˜2,10˜.0˜3,7˜.0˜22,27˜]hentriaconta-1(30),2,4,7,9,22,24,26,28-nonaen-19-ol], the IC50 was 6 nM in experiment [2] (setting [10]), 2.5 nM in experiment [1] (setting [9]), 1 nM in experiment [3] (setting [11]) and 49 nM with AsPC-1 cells (setting [12]).
Take “(15R)-22,31-Difluoro-8-(((2R,7aS)-2-fluorotetrahydro-1H-pyrrolo[1,2-a]pyrrol-7a(5H)-yl)methoxy)-27-hydroxy-15-methyl-16-oxa-3,7,9,11-tetraazahexacyclo[19.7.1.1˜2,6˜.1˜11,15˜0.0˜5,10˜.0˜25,29˜]hentriaconta-1(28),2(31),3,5,7,9,21,23,25(29),26-decaen-17-one bis(2,2,2-trifluoroacetate) [Example 43]”: the IC50 in experiment [2] (setting [7]) was found to be 4 nM; in experiment [1] (2 h, read-out: 2 h p-ERK (AsPC-1 cells), IC50), 13 nM; in experiment [3] (setting [8]), 2 nM; with AsPC-1 cells (AsPC-1, 72 h), 92 nM.
